Laboratory results published in patent publication US20210353577A1, “METHODS FOR THE PREPARATION OF A LEVOTHYROXINE SOLUTION” (EMP Levo US B.V., priority 2016, published 2021).
Like-named read-outs stand apart in the source and are kept apart here.

How the values were obtained:
[1] = cited from earlier work; for behaviour in an aqueous solution: GB2191695
[2] = tested on: micro-organisms as shown in the tables 10A-F; experiment: Efficacy of antimicrobial preservation, overall judgement; type: cell-based; settings: Ph. Eur. 9.0, section 5.1.3; in oral levothyroxine solution
Text: Preservation Efficacy Tests […] As comparison, sample 1 of U.S. Pat. No. 9,345,722 has been prepared, in accordance with example 6 of U.S. Pat. No. 9,345,722. The test consists of challenging the sample solution with a prescribed inoculum of suitable micro-organisms as shown in the tables 10A-F, storing the inoculated solution at ambient temperature, avoiding sunlight, withdrawing samples from the container at specified intervals of time and counting the micro-organisms in the samples so removed. The preservative properties of the solution are adequate if, in the conditions of the test, there is a significant fall or no increase, as appropriate, in the number of micro-organisms in the inoculated solution after 14 and 28 days. ATCC stands for the deposit number of the micro-organism at the American Type Culture Collection ATCC.

SMILES	efficacy of antimicrobial preservation in words [2]	further results
N[C@@H](Cc1cc(I)c(Oc2cc(I)c(O)c(I)c2)c(I)c1)C(=O)[O-].[Na+] [Levothyroxine sodium, sodium (2S)-2-amino-3-[4-(4-hydroxy-3,5-diiodophenoxy)-3,5-diiodophenyl]-propanoate]	–	solubility in 96% ethanol ([1]; 96% ethanol): slightly soluble; solubility in water ([1]; water): very slightly soluble
O=C(O)c1ccccc1 [benzoic acid]	comply with the relevant criteria	–
N[C@@H](Cc1cc(I)c(Oc2cc(I)c(O)c(I)c2)c(I)c1)C(=O)O [levothyroxine, 3,5,3′,5′-tetraiodo-L-thyronine]	–	behaviour in an aqueous solution ([1]; pH 11-12): dissolves; behaviour in an aqueous solution ([1]; pH lowered further to pH 5-6): formation of a precipitate; behaviour in an aqueous solution ([1]; pH lowered to pH 7): white pale suspension
O=C([O-])c1ccccc1.[K+] [potassium benzoate]	results similar to that of sodium benzoate	–
C/C=C/C=C/C(=O)[O-].[K+] [potassium sorbate]	results similar to that of sorbic acid	–
O=C([O-])c1ccccc1.[Na+] [sodium benzoate]	comply with the relevant criteria	–
COC(=O)c1ccc(O)cc1.[Na] [sodium methyl paraben, sodium methyl parahydroxybenzoate]	less efficient preservative	–
C/C=C/C=C/C(=O)[O-].[Na+] [sodium sorbate]	results similar to that of sorbic acid	–
C/C=C/C=C/C(=O)O [sorbic acid]	comply with the relevant criteria	–
